Where a name gives a salt, the structure may show the parent alone.
Target: T1, recombinant human Estrogen Receptor alpha ligand binding domain, residues 307-554 (ER alpha-LBD (GST)) (Homo sapiens, UniProt P03372)
T1 construct: made in house
T1 sequence (P03372 307-554): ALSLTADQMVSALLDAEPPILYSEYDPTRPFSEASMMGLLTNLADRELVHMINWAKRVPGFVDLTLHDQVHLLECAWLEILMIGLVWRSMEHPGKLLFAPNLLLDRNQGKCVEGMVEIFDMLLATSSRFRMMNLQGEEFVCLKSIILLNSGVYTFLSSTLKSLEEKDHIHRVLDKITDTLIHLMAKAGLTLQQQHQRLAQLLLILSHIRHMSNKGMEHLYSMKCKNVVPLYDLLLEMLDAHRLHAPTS
Test: ERα binding assay (LanthaScreen TR-FRET competition)
Settings: TR-FRET competition with Fluormone ES2 tracer, 4 hours at room temperature; single experiment or average of two or more

`Cc1ncsc1-c1ccc(CNC(=O)[C@@H]2C[C@@H](O)CN2C(=O)[C@@H](NC(=O)COCCO[C@H](C)[C@@H](C)OCCOc2cc(F)c([C@@H]3c4[nH]c5ccccc5c4C[C@@H](C)N3CC(C)(C)F)c(F)c2)C(C)(C)C)cc1` [Example 80, (2S,4R)-1-((2S,10R,11R)-2-(tert-butyl)-14-(3,5-difluoro-4-((1R,3R)-2-(2-fluoro-2-methylpropyl)-3-methyl-2,3,4,9-tetrahydro-1H-pyrido[3,4-b]indol-1-yl)phenoxy)-10,11-dimethyl-4-oxo-6,9,12-trioxa-3-azatetradecanoyl)-4-hydroxy-N-(4-(4-methylthiazol-5-yl)benzyl)pyrrolidine-2-carboxamide] and `Cc1ncsc1-c1ccc(CNC(=O)[C@@H]2C[C@@H](O)CN2C(=O)[C@@H](NC(=O)COCCO[C@@H](C)[C@H](C)OCCOc2cc(F)c([C@@H]3c4[nH]c5ccccc5c4C[C@@H](C)N3CC(C)(C)F)c(F)c2)C(C)(C)C)cc1` [Example 82, (2S,4R)-1-((2S,10S,11S)-2-(tert-butyl)-14-(3,5-difluoro-4-((1R,3R)-2-(2-fluoro-2-methylpropyl)-3-methyl-2,3,4,9-tetrahydro-1H-pyrido[3,4-b]indol-1-yl)phenoxy)-10,11-dimethyl-4-oxo-6,9,12-trioxa-3-azatetradecanoyl)-4-hydroxy-N-(4-(4-methylthiazol-5-yl)benzyl)pyrrolidine-2-carboxamide] are within 1.5-fold of each other in IC50: 0.7 nM for the first, 0.9 nM for the second.

`Cc1ncsc1-c1ccc(CNC(=O)[C@@H]2C[C@@H](O)CN2C(=O)[C@@H](NC(=O)COCCOCCOCCCCNC(=O)c2cc(F)c([C@@H]3c4[nH]c5ccccc5c4C[C@@H](C)N3CC(C)(C)F)c(F)c2)C(C)(C)C)cc1` [Example 83, (2S,4R)-1-((S)-17-(tert-Butyl)-1-(3,5-difluoro-4-((1R,3R)-2-(2-fluoro-2-methylpropyl)-3-methyl-2,3,4,9-tetrahydro-1H-pyrido[3,4-b]indol-1-yl)phenyl)-1,15-dioxo-7,10,13-trioxa-2,16-diazaoctadecan-18-oyl)-4-hydroxy-N-(4-(4-methylthiazol-5-yl)benzyl)pyrrolidine-2-carboxamide] and `Cc1ncsc1-c1ccc(CNC(=O)[C@@H]2C[C@@H](O)CN2C(=O)[C@@H](NC(=O)COCCOCCOCCCNC(=O)c2cc(F)c([C@@H]3c4[nH]c5ccccc5c4C[C@@H](C)N3CC(C)(C)F)c(F)c2)C(C)(C)C)cc1` [Example 84, (2S,4R)-1-((S)-16-(tert-Butyl)-1-(3,5-difluoro-4-((1R,3R)-2-(2-fluoro-2-methylpropyl)-3-methyl-2,3,4,9-tetrahydro-1H-pyrido[3,4-b]indol-1-yl)phenyl)-1,14-dioxo-6,9,12-trioxa-2,15-diazaheptadecan-17-oyl)-4-hydroxy-N-(4-(4-methylthiazol-5-yl)benzyl)pyrrolidine-2-carboxamide] are within 1.5-fold of each other in IC50: 1.1 nM for the first, 1.3 nM for the second.

`Cc1ncsc1-c1ccc(CNC(=O)[C@@H]2C[C@@H](O)CN2C(=O)[C@@H](NC(=O)COCc2ccc(COc3cc(F)c([C@@H]4c5[nH]c6ccccc6c5C[C@@H](C)N4CC(C)(C)F)c(F)c3)nc2)C(C)(C)C)cc1` [Example 85, (2S,4R)-1-((S)-2-(2-((6-((3,5-difluoro-4-((1R,3R)-2-(2-fluoro-2-methylpropyl)-3-methyl-2,3,4,9-tetrahydro-1H-pyrido[3,4-b]indol-1-yl)phenoxy)methyl)pyridin-3-yl)methoxy)acetamido)-3,3-dimethylbutanoyl)-4-hydroxy-N-(4-(4-methylthiazol-5-yl)benzyl)pyrrolidine-2-carboxamide] and `Cc1ncsc1-c1ccc(CNC(=O)[C@@H]2C[C@@H](O)CN2C(=O)[C@@H](NC(=O)COCc2ccc(COc3cc(F)c([C@@H]4c5[nH]c6ccccc6c5C[C@@H](C)N4CC(C)(C)F)c(F)c3)cn2)C(C)(C)C)cc1` [Example 86, (2S,4R)-1-((S)-2-(2-((5-((3,5-Difluoro-4-((1R,3R)-2-(2-fluoro-2-methylpropyl)-3-methyl-2,3,4,9-tetrahydro-1H-pyrido[3,4-b]indol-1-yl)phenoxy)methyl)pyridin-2-yl)methoxy)acetamido)-3,3-dimethylbutanoyl)-4-hydroxy-N-(4-(4-methylthiazol-5-yl)benzyl)pyrrolidine-2-carboxamide] are within 1.5-fold of each other in IC50: 0.9 nM for the first, 0.7 nM for the second.

Going from `Cc1ncsc1-c1ccc(CNC(=O)[C@@H]2C[C@@H](O)CN2C(=O)[C@@H](NC(=O)COCCOCCOCCNC(=O)c2cc(F)c([C@@H]3c4[nH]c5ccccc5c4C[C@@H](C)N3CC(C)(C)F)c(F)c2)C(C)(C)C)cc1` [Example 91, (2S,4R)-1-((S)-15-(tert-Butyl)-1-(3,5-difluoro-4-((1R,3R)-2-(2-fluoro-2-methylpropyl)-3-methyl-2,3,4,9-tetrahydro-1H-pyrido[3,4-b]indol-1-yl)phenyl)-1,13-dioxo-5,8,11-trioxa-2,14-diazahexadecan-16-oyl)-4-hydroxy-N-(4-(4-methylthiazol-5-yl)benzyl)pyrrolidine-2-carboxamide] to `Cc1ncsc1-c1ccc(CNC(=O)[C@@H]2C[C@@H](O)CN2C(=O)[C@@H](NC(=O)COCCOCCCCCOc2cc(F)c([C@@H]3c4[nH]c5ccccc5c4C[C@@H](C)N3CC(C)(C)F)c(F)c2)C(C)(C)C)cc1` [Example 97, (2S,4R)-1-((S)-2-(2-(2-((5-(3,5-Difluoro-4-((1R,3R)-2-(2-fluoro-2-methylpropyl)-3-methyl-2,3,4,9-tetrahydro-1H-pyrido[3,4-b]indol-1-yl)phenoxy)pentyl)oxy)ethoxy)acetamido)-3,3-dimethylbutanoyl)-4-hydroxy-N-(4-(4-methylthiazol-5-yl)benzyl)pyrrolidine-2-carboxamide], the IC50 falls from 1.3 nM to 0.5 nM (2.6-fold). The second is the more potent here.

`Cc1ncsc1-c1ccc(CNC(=O)[C@@H]2C[C@@H](O)CN2C(=O)[C@@H](NC(=O)COCCCCOCCCOc2cc(F)c([C@@H]3c4[nH]c5ccccc5c4C[C@@H](C)N3CC(C)(C)F)c(F)c2)C(C)(C)C)cc1` [Example 93] and `Cc1ncsc1-c1ccc(CNC(=O)[C@@H]2C[C@@H](O)CN2C(=O)[C@@H](NC(=O)COCCCOCCOc2cc(F)c([C@@H]3c4[nH]c5ccccc5c4C[C@@H](C)N3CC(F)(F)F)c(F)c2)C(C)(C)C)cc1` [Example 94, (2S,4R)-1-((S)-2-(2-(3-(2-(3,5-Difluoro-4-((1R,3R)-3-methyl-2-(2,2,2-trifluoroethyl)-2,3,4,9-tetrahydro-1H-pyrido[3,4-b]indol-1-yl)phenoxy)ethoxy)propoxy)acetamido)-3,3-dimethylbutanoyl)-4-hydroxy-N-(4-(4-methylthiazol-5-yl)benzyl)pyrrolidine-2-carboxamide] are within 1.5-fold of each other in IC50: 0.7 nM for the first, 0.9 nM for the second.

Compared with `Cc1ncsc1-c1ccc(CNC(=O)[C@@H]2C[C@@H](O)CN2C(=O)[C@@H](NC(=O)COCCOCCOCCOc2cc(F)c([C@@H]3c4[nH]c5ccccc5c4C[C@@H](C)N3CC(F)(F)F)c(F)c2)C(C)(C)C)cc1` [Example 95, (2S,4R)-1-((S)-2-(tert-Butyl)-14-(3,5-difluoro-4-((1R,3R)-3-methyl-2-(2,2,2-trifluoroethyl)-2,3,4,9-tetrahydro-1H-pyrido[3,4-b]indol-1-yl)phenoxy)-4-oxo-6,9,12-trioxa-3-azatetradecanoyl)-4-hydroxy-N-(4-(4-methylthiazol-5-yl)benzyl)pyrrolidine-2-carboxamide], `Cc1ncsc1-c1ccc(CNC(=O)[C@@H]2C[C@@H](O)CN2C(=O)[C@@H](NC(=O)COCCCCCOc2cc(F)c([C@@H]3c4[nH]c5ccccc5c4C[C@@H](C)N3CC(F)(F)F)c(F)c2)C(C)(C)C)cc1` [Example 96] is 2-fold lower in IC50: 1.2 nM for the first, 0.6 nM for the second.

`CC[C@H](C)[C@H](N)C(=O)O[C@@H]1C[C@@H](C(=O)NCc2ccc(-c3scnc3C)cc2)N(C(=O)[C@@H](NC(=O)COCCOCCOCCOc2cc(F)c([C@@H]3c4[nH]c5ccccc5c4C[C@@H](C)N3CC(C)(C)F)c(F)c2)C(C)(C)C)C1` [Example 99, (3R,5S)-1-((S)-2-(2-(2-(2-(2-(3,5-Difluoro-4-((1R,3R)-2-(2-fluoro-2-methylpropyl)-3-methyl-2,3,4,9-tetrahydro-1H-pyrido[3,4-b]indol-1-yl)phenoxy)ethoxy)ethoxy)ethoxy)acetamido)-3,3-dimethylbutanoyl)-5-((4-(4-methylthiazol-5-yl)benzyl)carbamoyl)pyrrolidin-3-yl L-isoleucinate Formate] and `Cc1ncsc1-c1ccc(CNC(=O)[C@@H]2C[C@@H](OC(=O)[C@H](C)NC(=O)[C@@H](N)C(C)C)CN2C(=O)[C@@H](NC(=O)COCCOCCOCCOc2cc(F)c([C@@H]3c4[nH]c5ccccc5c4C[C@@H](C)N3CC(C)(C)F)c(F)c2)C(C)(C)C)cc1` [Example 100, (3R,5S)-1-((S)-2-(2-(2-(2-(2-(3,5-Difluoro-4-((1R,3R)-2-(2-fluoro-2-methylpropyl)-3-methyl-2,3,4,9-tetrahydro-1H-pyrido[3,4-b]indol-1-yl)phenoxy)ethoxy)ethoxy)ethoxy)acetamido)-3,3-dimethylbutanoyl)-5-((4-(4-methylthiazol-5-yl)benzyl)carbamoyl)pyrrolidin-3-yl L-valyl-L-alaninate Formate] are within 1.5-fold of each other in IC50: 1.2 nM for the first, 0.8 nM for the second.

Source: patent US10519152B2, “Compounds and their use in treating cancer” (AstraZeneca AB, priority 2017, dated 2019)
